# Values joined by “and” are separate entries in the source; they are usually repeats but may differ in a detail not shown here. Identical values can stand only once. “Also recorded” adds a separate entry of the source.
# Test system: Petaluma strain of FIV
# Assay: Plasma viremia by reverse transcription TaqMan PCR in FIV-infected cats
# Format: in vivo, domestic cat
# Details: for Plasma Viremia: cats BR, CF
# From the text: Currently available antiretrovirals require daily dosing, often in combination therapy. Two 12^+-year old specific-pathogen-free domestic female cats infected >5 years with the Petaluma strain of FIV were used in this study. The animals were housed individually in a climatized animal facility in accordance with standards, had ad libitum access to fresh water and food, and were sedated with Tiletamine/Zolazepam intramuscularly prior to any procedure. The cats weighed from 3-5 kg each. Three weeks before initiation of the treatment and at scheduled times, samples were collected for hematological and virological analyses. The cats received 9 intravenous doses of 3 mg/kg FX101 over 4.5 weeks (2× weekly).
# Viral RNA extracted from plasma using the QIAmp viral RNA kit (QIAGEN), was reverse transcribed and amplified by reverse transcription TaqMan PCR. Reverse transcription and amplification conditions, and minimum detection limits of the assay (100-200 copies/mL plasma) are described elsewhere (Pistello, 2005). This measure represents viral presence in circulation, reflecting potential infectivity and productive synthesis of viral particles.
# 0.1664 g FX101 was dissolved into 30 mL 15% DMSO/PBS and stirred overnight. This solution was sterile-filtered using a 20-mL syringe fitted with a […] Sarstedt filter. Each dose was administered under anesthesia, a 1.5 mL venous injection using a 2.5 mL syringe fitted with a 22G 1¼-in. needle (latex free). Feline BR weighed 3.2 kg at the start of the experiment and CF weighed 2.8 kg. Each received 8.3 mg drug with each dose, so dosages were 2.6 mg/kg for BR and 3.0 mg/kg for CF.
# Table 8 illustrates measures of plasma viremia from the two test cats, “BR” and […] relative to the treatment period, receiving intravenous injections of FX101 twice weekly over four weeks. Each blood sample was taken immediately prior to drug injection for the scheduled dosing, August 23-September 30. This provided two pretreatment samples as baseline measures, 3 samples during treatment, and two post-treatment samples; note the addition of an unscheduled sample October 20. […] Following the last dosage, the first post-treatment results were ambiguous, with one cat experiencing a strong rebound and the other remaining below detection. This difference may be attributable to a uterine infection experienced by cat “BR” at this time—a historically frequent occurrence for this cat. It is well known that lipopolysaccharides (LPS) induce lentiviral replication, and this may therefore be related.
structure (smiles),measurement,setting,value
"[NH2][Pt]([NH2])([Cl])([Cl])([Cl])[N+](=O)[O-] [FX101, nitrotrichlorodiamminoPt(IV)]",plasma viremia after treatment (in words),"4 weeks to 9 months past the final dosage, no additional therapies",significantly lower viremia as compared with baseline measures; also recorded: undetectable plasma viremia
same,Plasma Viremia,"Aug. 2, 2007 pretreatment",2582 Viral RNA Copies/mL Plasma and 4282 Viral RNA Copies/mL Plasma
same,Plasma Viremia,"Aug. 23, 2007 start of treatment period, blood collected prior to dosing",8841 Viral RNA Copies/mL Plasma and 6974 Viral RNA Copies/mL Plasma
same,Plasma Viremia,"Aug. 30, 2007 treatment period, i.v. twice weekly",1300 Viral RNA Copies/mL Plasma and 1249 Viral RNA Copies/mL Plasma
same,Plasma Viremia,"Feb. 1, 2006 pretreatment",6557 Viral RNA Copies/mL Plasma and 3864 Viral RNA Copies/mL Plasma
same,Plasma Viremia,"Jun. 12, 2008 (+38 wk) post treatment",<200 Viral RNA Copies/mL Plasma
same,Plasma Viremia,"Mar. 1, 2006 pretreatment",3072 Viral RNA Copies/mL Plasma and 2819 Viral RNA Copies/mL Plasma
same,Plasma Viremia,"Mar. 27, 2008 (+27 wk) post treatment",<200 Viral RNA Copies/mL Plasma
same,Plasma Viremia,"Oct. 20, 2007 (+4 wk) post treatment",898 Viral RNA Copies/mL Plasma and 1057 Viral RNA Copies/mL Plasma
same,Plasma Viremia,"Sep. 4, 2007 treatment period, i.v. twice weekly",<100 Viral RNA Copies/mL Plasma
same,Plasma Viremia,"Sep. 20, 2007 treatment period, i.v. twice weekly",<100 Viral RNA Copies/mL Plasma
same,plasma viremia during treatment (in words),"both cats, over two weeks of twice weekly i.v. injections",significant reduction in plasma viremia
